Where “and” joins values, the source holds several entries; their conditions need not be identical. Identical values can stand only once. Like-named read-outs stand apart in the source and are kept apart here.
Key:
[1] = target: T1, CYP1A2 (Homo sapiens, UniProt P05177); assay: in vitro; conditions: both, microsomes, pH 7.4
T1 sequence (P05177 1-516): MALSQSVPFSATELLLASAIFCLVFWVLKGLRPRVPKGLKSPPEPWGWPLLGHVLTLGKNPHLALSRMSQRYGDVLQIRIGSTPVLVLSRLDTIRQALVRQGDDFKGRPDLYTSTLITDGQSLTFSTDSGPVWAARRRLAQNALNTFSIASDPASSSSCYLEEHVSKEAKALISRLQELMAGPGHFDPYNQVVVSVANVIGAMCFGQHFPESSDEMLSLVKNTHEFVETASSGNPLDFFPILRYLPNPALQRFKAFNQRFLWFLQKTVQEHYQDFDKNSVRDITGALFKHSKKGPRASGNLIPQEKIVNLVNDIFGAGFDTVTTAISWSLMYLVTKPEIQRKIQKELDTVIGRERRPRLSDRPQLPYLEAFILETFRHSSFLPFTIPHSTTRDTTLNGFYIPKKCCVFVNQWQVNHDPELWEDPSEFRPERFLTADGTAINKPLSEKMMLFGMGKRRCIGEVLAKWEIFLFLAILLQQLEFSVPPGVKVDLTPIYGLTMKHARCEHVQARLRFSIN

[2] = target: T2, CYP2C8 (Homo sapiens, UniProt P10632); assay: in vitro; conditions: both, pH 7.4
T2 sequence (P10632 1-490): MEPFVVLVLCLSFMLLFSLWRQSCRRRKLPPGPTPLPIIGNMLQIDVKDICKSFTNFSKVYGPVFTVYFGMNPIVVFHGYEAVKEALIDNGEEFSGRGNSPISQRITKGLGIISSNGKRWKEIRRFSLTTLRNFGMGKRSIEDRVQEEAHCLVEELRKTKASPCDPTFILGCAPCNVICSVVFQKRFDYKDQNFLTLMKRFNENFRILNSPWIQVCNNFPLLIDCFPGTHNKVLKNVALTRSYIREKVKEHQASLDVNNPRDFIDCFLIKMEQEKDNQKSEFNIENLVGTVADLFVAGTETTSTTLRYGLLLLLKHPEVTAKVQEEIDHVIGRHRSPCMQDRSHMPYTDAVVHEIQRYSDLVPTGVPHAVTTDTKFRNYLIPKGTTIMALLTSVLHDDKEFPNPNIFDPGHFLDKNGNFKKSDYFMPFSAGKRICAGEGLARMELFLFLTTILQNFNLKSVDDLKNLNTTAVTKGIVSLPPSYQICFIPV

[3] = target: CYP2D6 (Homo sapiens, UniProt P10635); assay: in vitro; conditions: both, pH 7.4
[4] = target: CYP2C9 (Homo sapiens, UniProt P11712); assay: in vitro; conditions: both, pH 7.4
[5] = target: T3, MATE1 (Homo sapiens, UniProt Q96FL8)
T3 sequence (Q96FL8 1-570): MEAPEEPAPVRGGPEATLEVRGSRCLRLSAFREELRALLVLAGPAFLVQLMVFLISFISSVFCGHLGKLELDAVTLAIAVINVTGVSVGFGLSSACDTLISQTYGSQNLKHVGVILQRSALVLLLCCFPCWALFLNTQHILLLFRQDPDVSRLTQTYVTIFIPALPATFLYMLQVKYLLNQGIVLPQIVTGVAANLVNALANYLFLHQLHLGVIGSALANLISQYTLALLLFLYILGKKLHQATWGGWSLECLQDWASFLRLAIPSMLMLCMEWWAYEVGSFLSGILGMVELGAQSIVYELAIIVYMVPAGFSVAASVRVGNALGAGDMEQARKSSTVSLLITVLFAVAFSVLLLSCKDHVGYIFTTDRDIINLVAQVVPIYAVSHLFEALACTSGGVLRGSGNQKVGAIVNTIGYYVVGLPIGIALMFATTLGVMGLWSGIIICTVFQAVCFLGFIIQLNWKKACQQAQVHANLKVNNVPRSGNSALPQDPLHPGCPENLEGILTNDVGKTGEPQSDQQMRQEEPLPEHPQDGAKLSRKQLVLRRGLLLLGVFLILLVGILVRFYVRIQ
Procedure: (§1) Uptake experiments were performed using HEK293 cells stably expressing the respective uptake transporters.
(§2) Cells were cultured at 37° C. in a humidified atmosphere containing 5% CO2 and were plated onto standard 96-well tissue culture plates.
(§3) Before the experiment, the medium was removed, and the cells were washed twice with 100 μL of pre-warmed (37° C.) assay buffer listed in Table 15. The cells were pre-incubated at 37° C. for 30 minutes in assay buffer containing the test article at appropriate concentrations (Table 16), appropriate solvents for solvent controls and the reference inhibitor for reference inhibitor wells. After the pre-incubation step solutions were removed. Uptake experiments were performed at 37° C. in 50 μL of assay buffer containing the probe substrate and the test article or solvent and controls.
(§4) After the experiment, cells were washed twice with 100 μL of appropriate cold buffer and lysed with 150 μL scintillation cocktail. Radiolabeled probe substrate transport was determined by liquid scintillation counting.
(§5) Uptake of the probe substrate in control cells provided background activity values for all data points.

[6] = target: T4, MATE2-K (Homo sapiens, UniProt Q86VL8); assay: in vitro
Procedure: as §1, §2, §3, §4, §5

[7] = target: T4, MATE2-K
Procedure: as §1, §2, §3, §4, §5

[8] = target: T3, MATE1; assay: in vitro
Procedure: as §1, §2, §3, §4, §5

[9] = target: T5, CYP2C19 (Homo sapiens, UniProt P33261); assay: in vitro; conditions: both, pH 7.4
[10] = target: T5, CYP2C19; assay: biochemical
[11] = Stability in beagle dog plasma; conditions: 2.0 μM
Procedure: (§6) Pooled (N≥3) male SD rat, beagle dog and mixed gender human plasma with EDTA-K2 as anticoagulant were purchased from BioIVT (NY, USA) and stored in a −70° C. freezer before use.
(§7) Incubations were conducted in 96-well plate format. The time points defined for this study are 0, 5, 15, 30 and 60 minutes.
(§8) For positive controls, the rat plasma was spiked with enalapril, the dog plasma spiked with bisacodyl and the human plasma was spiked with propantheline. All spiked plasma sample plates were incubated in a water bath at 37° C. with shaking.
(§9) At end of each time point, samples were immediately quenched with three volume of cold quenching solution. All sample plates were mixed thoroughly by shaking for approximately 10 minutes and centrifuged at 3220×g for 15 minutes. Subsequently, 100 μL of supernatant was removed from each well, mixed with 100 μL water in a new 96-well plate and subjected to LC-MS/MS analysis.
(§10) Concentrations of test article, metabolite, and control compounds in the samples were analyzed by LC-MS/MS semi-quantitatively. […] The peak area ratios of analyte/internal standard were used to semi-quantitatively determine the concentrations.
(§11) The peak area ratios (PAR) of analyte/internal standard were used to semi-quantitatively determine the concentration of test article and control compounds, and calculate the percent remaining with the following equation:
(§12) The elimination rate (ke) was calculated from a log linear plot of % remaining versus time. The half-life was calculated using the following equation:

[12] = in vitro; conditions: beagle, dog, plasma
Procedure: as §6, §7, §8, §9, §10, §11, §12

T4 sequence (Q86VL8 1-566 isoform Q86VL8-3): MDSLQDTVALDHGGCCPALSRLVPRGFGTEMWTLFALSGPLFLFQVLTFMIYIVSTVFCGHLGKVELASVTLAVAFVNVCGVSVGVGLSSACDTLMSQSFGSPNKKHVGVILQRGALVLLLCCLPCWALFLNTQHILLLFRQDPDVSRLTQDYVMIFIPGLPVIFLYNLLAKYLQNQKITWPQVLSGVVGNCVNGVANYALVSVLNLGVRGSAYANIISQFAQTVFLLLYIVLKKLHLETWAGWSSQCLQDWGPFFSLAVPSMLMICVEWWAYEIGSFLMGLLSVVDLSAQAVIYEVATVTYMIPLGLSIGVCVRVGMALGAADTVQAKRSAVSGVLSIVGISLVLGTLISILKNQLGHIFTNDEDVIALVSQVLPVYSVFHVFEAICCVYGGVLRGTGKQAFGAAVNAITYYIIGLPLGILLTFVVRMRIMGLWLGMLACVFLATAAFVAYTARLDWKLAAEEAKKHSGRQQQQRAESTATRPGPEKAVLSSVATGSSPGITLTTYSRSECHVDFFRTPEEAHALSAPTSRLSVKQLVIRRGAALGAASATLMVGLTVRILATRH
T5 sequence (P33261 whole entry): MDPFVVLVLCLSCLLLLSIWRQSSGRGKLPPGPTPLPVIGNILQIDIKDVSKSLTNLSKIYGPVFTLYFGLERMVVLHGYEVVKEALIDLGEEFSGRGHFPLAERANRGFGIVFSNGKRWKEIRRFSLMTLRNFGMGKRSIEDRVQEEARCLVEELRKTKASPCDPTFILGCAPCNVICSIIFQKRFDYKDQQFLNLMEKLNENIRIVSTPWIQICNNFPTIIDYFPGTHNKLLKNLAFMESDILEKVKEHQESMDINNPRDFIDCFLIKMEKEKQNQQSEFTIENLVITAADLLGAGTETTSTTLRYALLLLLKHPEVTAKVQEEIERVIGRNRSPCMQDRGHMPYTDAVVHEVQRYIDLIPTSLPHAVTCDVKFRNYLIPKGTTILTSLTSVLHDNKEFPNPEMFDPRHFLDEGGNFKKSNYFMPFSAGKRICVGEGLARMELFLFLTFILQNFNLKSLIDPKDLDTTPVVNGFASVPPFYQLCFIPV
Chain of CYP2C9 (P11712 whole entry): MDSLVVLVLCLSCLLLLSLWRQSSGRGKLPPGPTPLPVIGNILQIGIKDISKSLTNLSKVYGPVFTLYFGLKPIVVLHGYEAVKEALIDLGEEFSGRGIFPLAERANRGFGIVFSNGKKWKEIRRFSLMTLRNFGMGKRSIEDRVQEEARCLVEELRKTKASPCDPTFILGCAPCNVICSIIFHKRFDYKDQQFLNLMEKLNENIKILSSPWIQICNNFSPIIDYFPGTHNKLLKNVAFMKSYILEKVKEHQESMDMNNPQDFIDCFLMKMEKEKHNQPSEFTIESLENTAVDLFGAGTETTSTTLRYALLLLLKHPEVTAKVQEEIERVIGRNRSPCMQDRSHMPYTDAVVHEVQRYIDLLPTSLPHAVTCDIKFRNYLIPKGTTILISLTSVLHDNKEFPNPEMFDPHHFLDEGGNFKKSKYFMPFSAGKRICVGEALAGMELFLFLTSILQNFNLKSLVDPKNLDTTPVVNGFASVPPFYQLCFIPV
Chain of CYP2D6 (P10635 whole entry): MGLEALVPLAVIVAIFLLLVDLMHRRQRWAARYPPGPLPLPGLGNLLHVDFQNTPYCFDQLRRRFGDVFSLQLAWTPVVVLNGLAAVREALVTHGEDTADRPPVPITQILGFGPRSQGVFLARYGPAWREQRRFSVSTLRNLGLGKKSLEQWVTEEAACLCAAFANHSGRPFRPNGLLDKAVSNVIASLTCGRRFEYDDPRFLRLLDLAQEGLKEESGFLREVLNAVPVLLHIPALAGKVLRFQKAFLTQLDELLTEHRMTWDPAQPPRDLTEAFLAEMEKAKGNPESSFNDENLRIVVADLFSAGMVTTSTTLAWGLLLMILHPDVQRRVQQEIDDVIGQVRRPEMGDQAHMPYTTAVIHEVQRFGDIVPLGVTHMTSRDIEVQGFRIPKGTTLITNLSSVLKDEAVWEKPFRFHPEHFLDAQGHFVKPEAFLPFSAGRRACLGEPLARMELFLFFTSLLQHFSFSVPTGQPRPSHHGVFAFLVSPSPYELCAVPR

## COCCCC/C(=N\OCCN)c1ccc(C(F)(F)F)cc1 [Fluvoxamine]
[1]
  inhibition at 50 µM: 101%

## O=c1c(O)c(-c2ccc(O)c(O)c2)oc2cc(O)cc(O)c12 [Quercetin]
[2]
  inhibition at 50 µM: 102%

## C=C[C@H]1C[N@@]2CC[C@H]1C[C@@H]2[C@@H](O)c1ccnc2ccc(OC)cc12 [Quinidine]
[3]
  inhibition at 5 µM: 96.2%

## Nc1ccc(S(=O)(=O)Nc2ccnn2-c2ccccc2)cc1 [Sulfaphenazole]
[4]
  inhibition at 50 µM: 98.7%

## CCc1nc(N)nc(N)c1-c1ccc(Cl)cc1 [Pyrimethamine]
[5]
  inhibition: 100%
[5]; 5 µM
  inhibition: 100%
[6]
  inhibition at 5 µM: 95%
  inhibition at 5 μM: 98%
[7]
  inhibition: 101%
[7]; 5 µM
  inhibition: 101% and 102% and 100%
[8]
  inhibition at 5 µM: 102%
  inhibition at 5 μM: 101%

## COc1ccc2[nH]c([S+]([O-])Cc3ncc(C)c(OC)c3C)nc2c1 (stereo not shown) [Omeprazole]
[9]
  inhibition at 50 µM: 89.9%
[10]
  IC50: 7.36 µM

## CC(=O)Oc1ccc(C(c2ccc(OC(C)=O)cc2)c2ccccn2)cc1 [Bisacodyl, reference compound]
[11]; 0 min
  % Remaining: 100%
  Aa/Ai Mean (N = 2): 1.49
[11]; 5 min
  % Remaining: 45.9%
  Aa/Ai Mean (N = 2): 0.68
[11]; 15 min
  % Remaining: 8.79%
  Aa/Ai Mean (N = 2): 0.13
[11]; 30 min
  % Remaining: 0.34%
  Aa/Ai Mean (N = 2): 0.01
[11]; 60 min
  % Remaining: 0.00%
  Aa/Ai Mean (N = 2): 0.00
[12]
  half-life at 2 μM: 3.6 min
